# Test system: Cryptococcus neoformans
# Experiment: MIC by broth microdilution (CLSI M27-A3)
# Type: cell-based
# Details: Cryptococcus neoformans, Resistance FLU
compound,measurement,setting,value
"OC(Cn1cncn1)(Cn1cncn1)c1ccc(F)cc1F [FLC, fluconazole]",MIC50,Cryptococcus neoformans CN2,> 64 µg/mL
same,MIC50,Cryptococcus neoformans CN3,> 64 µg/mL
